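How tested: cells in 96-well plates exposed to compound for 48 hours at five concentrations. The concentration for 50% growth inhibition is given as GI50.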 Activity calls are given as the source filed them. Cut-off read from the data, not from the text of the source: active = GI50 up to about 1.1 µM and inactive = higher.
Experiments:
Assay in all cases: inhibition of tumour cell growth, NCI panel, 48 h
[1] = test system: LXFL 529
[2] = test system: SNB-78
[3] = test system: DLD-1
[4] = test system: DMS-273
[5] = test system: DMS-114
[6] = test system: KM-20L2
[7] = test system: HOP-18
[8] = test system: RXF 631
[9] = test system: XF498

SMILES | GI50 [1] | GI50 [2] | GI50 [3] | GI50 [4] | GI50 [5] | GI50 [6] | GI50 [7] | GI50 [8] | GI50 [9]
CN(C)CCC(/C=C/c1ccccc1)=N\Nc1ccccc1 | 0.185 µM (active) | 3.63 µM (inactive) | 0.596 µM (active) | 0.571 µM (active) | 2.07 µM (inactive) | 0.241 µM (active) | 4.5 µM (inactive) | – | –
CC(=O)O[C@H]1[C@H](O[C@H]2CC[C@]34C[C@]35CC[C@]3(C)[C@@H]([C@@]6(C)CC[C@@H](C(C)(C)O)O6)[C@@H](O)C[C@@]3(C)[C@@H]5C[C@H](O[C@@H]3O[C@H](CO)[C@@H](O)[C@H](O)[C@H]3O)[C@H]4C2(C)C)OC[C@@H](O)[C@@H]1O | 74.8 µM (inactive) | > 100 µM (inactive) | 71.1 µM (inactive) | 44.6 µM (inactive) | 66.2 µM (inactive) | 69.7 µM (inactive) | > 100 µM (inactive) | > 100 µM (inactive) | > 100 µM (inactive)
C[C@@H](CC(O)C1OC1(C)C)[C@@H]1CC[C@]2(C)C3=CCC4C(C)(C)C(O)CC[C@]4(C)C3CCC12C (stereo partly specified) | 12.3 µM (inactive) | – | 16.6 µM (inactive) | 13.3 µM (inactive) | – | 15.4 µM (inactive) | 20 µM (inactive) | – | 20.8 µM (inactive)
COc1ccc(C23c4ccc(OC)cc4CC2(c2ccc([N+](=O)[O-])cc2)Cc2cc(OC)ccc23)cc1 (stereo unspecified) | > 54.5 µM (inactive) | > 100 µM (inactive) | > 22.8 µM (inactive) | > 62.2 µM (inactive) | > 50 µM (inactive) | > 15.7 µM (inactive) | 1.17 µM (inactive) | – | > 100 µM (inactive)
CC(=O)Oc1ccccc1 [ACETIC ACID PHENYL ESTER] | > 100 µM (inactive) | – | > 100 µM (inactive) | > 100 µM (inactive) | > 100 µM (inactive) | > 100 µM (inactive) | – | > 100 µM (inactive) | –
COc1cc([C@@H]2c3cc4c(cc3[C@@H](NCc3cccc(F)c3)C3COC(=O)[C@@H]32)OCO4)cc(OC)c1O (stereo partly specified) | 13.4 µM (inactive) | 15.3 µM (inactive) | 9.71 µM (inactive) | 2.21 µM (inactive) | 6.11 µM (inactive) | 6.64 µM (inactive) | > 65 µM (inactive) | – | –
COc1ccc([C@@]2(O)c3c(ccc(O)c3OC)[C@H]2OC)c(OC)c1 | 30.2 µM (inactive) | – | 47.3 µM (inactive) | – | 22.1 µM (inactive) | 66.5 µM (inactive) | – | – | 41.7 µM (inactive)
COc1ccccc1/C=C1\CCC(CNc2ccc(Cl)cc2)C1=O (stereo unspecified) | 0.226 µM (active) | 19.5 µM (inactive) | 1.31 µM (inactive) | 1.74 µM (inactive) | 4.08 µM (inactive) | 0.661 µM (active) | 16.5 µM (inactive) | – | 27.9 µM (inactive)
NC(=O)N/N=C/C(=C/Nc1ccccc1)[N+](=O)[O-] | > 100 µM (inactive) | – | > 100 µM (inactive) | > 100 µM (inactive) | > 100 µM (inactive) | > 100 µM (inactive) | > 100 µM (inactive) | – | > 100 µM (inactive)
O=C(NC1C2CC3CC(C2)CC1C3)c1ccncn1 (stereo unspecified) | > 100 µM (inactive) | > 100 µM (inactive) | > 100 µM (inactive) | > 100 µM (inactive) | > 100 µM (inactive) | > 100 µM (inactive) | – | > 100 µM (inactive) | –
CC/C(C)=C1\CCC(CN2CCOCC2)C1=O (stereo unspecified) | 11.2 µM (inactive) | 21.8 µM (inactive) | 11.9 µM (inactive) | 18.1 µM (inactive) | 5.26 µM (inactive) | 19.2 µM (inactive) | 19 µM (inactive) | – | 19.1 µM (inactive)
O=C1CCC2(c3ccccc3)Nc3ncccc3N12 (stereo unspecified) | > 100 µM (inactive) | > 100 µM (inactive) | > 100 µM (inactive) | – | > 100 µM (inactive) | > 100 µM (inactive) | – | – | > 100 µM (inactive)
COc1cc(C[S+]2CCCC2)c(SC)cc1C[S+]1CCCC1 | > 100 µM (inactive) | > 100 µM (inactive) | > 100 µM (inactive) | – | > 100 µM (inactive) | > 100 µM (inactive) | – | > 100 µM (inactive) | 74.5 µM (inactive)
N#CCc1cccc(CC#N)c1Br | > 100 µM (inactive) | > 100 µM (inactive) | > 100 µM (inactive) | > 100 µM (inactive) | > 100 µM (inactive) | > 100 µM (inactive) | – | – | > 100 µM (inactive)
CC(=O)Oc1cc(OC(C)=O)c2cc3c(cc2c1OC(C)=O)C(=O)C1(CCCC1)C3=O | – | 22.9 µM (inactive) | 20 µM (inactive) | 18.2 µM (inactive) | 16.5 µM (inactive) | 22.1 µM (inactive) | 22.8 µM (inactive) | – | 16.4 µM (inactive)
O=C(O)CCC(NC(=O)c1ccccc1)C(=O)O (stereo unspecified) | > 100 µM (inactive) | > 100 µM (inactive) | > 100 µM (inactive) | > 100 µM (inactive) | > 100 µM (inactive) | > 100 µM (inactive) | > 100 µM (inactive) | > 100 µM (inactive) | > 100 µM (inactive)
CCN(CC)CCCN1CCc2c([nH]c3ccccc23)C1c1cccnc1 (stereo unspecified) | > 100 µM (inactive) | > 100 µM (inactive) | > 100 µM (inactive) | > 100 µM (inactive) | > 100 µM (inactive) | > 100 µM (inactive) | – | > 100 µM (inactive) | 5.22 µM (inactive)
COC(=O)C1C2CC3C(OC(=O)C31)C2OC(=O)[C@](OC)(c1ccccc1)C(F)(F)F (stereo partly specified) | > 100 µM (inactive) | > 100 µM (inactive) | > 100 µM (inactive) | > 100 µM (inactive) | > 100 µM (inactive) | > 100 µM (inactive) | – | > 100 µM (inactive) | > 100 µM (inactive)
CCOC(=O)c1cnc2c(ccc3ncccc32)c1NCCCN(CC)CC | > 100 µM (inactive) | > 100 µM (inactive) | > 100 µM (inactive) | 54.1 µM (inactive) | – | 34.2 µM (inactive) | > 100 µM (inactive) | – | > 100 µM (inactive)
ON1CCc2c([nH]c3ccccc23)C1c1ccc(Cl)cc1 (stereo unspecified) | 24 µM (inactive) | 33 µM (inactive) | 25.2 µM (inactive) | 31.3 µM (inactive) | 19.4 µM (inactive) | 21.7 µM (inactive) | – | – | 22.6 µM (inactive)
CCCC1C(=O)C(CC)Cc2c(OC)ccc(OC)c21 (stereo unspecified) | > 100 µM (inactive) | > 100 µM (inactive) | > 100 µM (inactive) | > 100 µM (inactive) | – | – | – | > 100 µM (inactive) | > 100 µM (inactive)
COC(=O)C(CC1=C(O)Nc2ccccc2N1)/C(=N/NC(N)=O)C(=O)Nc1ccccc1C (stereo unspecified) | 69.8 µM (inactive) | > 100 µM (inactive) | 41.4 µM (inactive) | 17 µM (inactive) | 12.9 µM (inactive) | > 100 µM (inactive) | > 100 µM (inactive) | – | –
O=C(N/N=C(\C1=Nc2ccc(Cl)cc2NC1O)C(O)/C=C/c1ccccc1)c1ccncc1 (stereo unspecified) | > 100 µM (inactive) | > 100 µM (inactive) | > 100 µM (inactive) | > 100 µM (inactive) | > 100 µM (inactive) | > 100 µM (inactive) | – | – | > 100 µM (inactive)
O=C(c1ccccc1)c1nc2ccc(Cl)cc2cc1C(Br)Br | 0.216 µM (active) | – | 0.203 µM (active) | 0.286 µM (active) | 1.79 µM (inactive) | 0.25 µM (active) | 0.344 µM (active) | – | 0.933 µM (active)
O=c1c2c(-c3ccccc3)c3ccccc3nc2cnn1-c1ccccc1 | > 100 µM (inactive) | > 100 µM (inactive) | – | > 100 µM (inactive) | 57.1 µM (inactive) | > 100 µM (inactive) | > 100 µM (inactive) | – | –
OCCOc1ccc(-c2cc(-c3ccccn3)nc(-c3ccccn3)c2)cc1 | 0.376 µM (active) | 2.83 µM (inactive) | – | 0.143 µM (active) | 0.0552 µM (active) | < 0.0383 µM (active) | 0.166 µM (active) | 0.465 µM (active) | 0.0387 µM (active)
Cc1cccc(C)c1NC(=O)C1=NC(=S)NC(c2ccccc2)C1c1nc2ccccc2s1 (stereo unspecified) | > 100 µM (inactive) | > 100 µM (inactive) | > 100 µM (inactive) | > 100 µM (inactive) | > 100 µM (inactive) | > 100 µM (inactive) | > 100 µM (inactive) | – | > 100 µM (inactive)
Cc1ccc(C)c(N2C/C(=N\NC(=O)CC#N)C(c3nc4ccccc4s3)C(=O)C2=O)c1 (stereo unspecified) | > 100 µM (inactive) | > 100 µM (inactive) | > 100 µM (inactive) | > 100 µM (inactive) | > 100 µM (inactive) | > 100 µM (inactive) | > 100 µM (inactive) | – | > 100 µM (inactive)

— ChEMBL document CHEMBL1201862, “PubChem BioAssay data set” (2004)
